# From patent US20060069132A1, “Azolecarboxamide herbicides” (priority 2004, published 2006)
# Experiments:
# johnsongrass = experiment: Test C pre-/postemergence herbicide test; assay type: in vivo, Sorghum halepense; details: for Plant response rating, Johnsongrass / Plant response rating (0 = no effect, 100 = complete control), Johnsongrass: preemergence; for Plant response rating (0 = no effect, 100 = complete control), Johnsongrass: 62 g ai/ha
# How it was run: (§1)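 Visual ratings on a 0–100 scale (100 = complete control) made versus untreated controls after 12 to 14 greenhouse days. Test chemicals, formulated in surfactant-containing non-phytotoxic solvent, applied preemergence to planted seeds or postemergence to 1- to 4-leaf plants (2 to 18 cm).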
# corn [1] = experiment: Test B pre-/postemergence herbicide test; assay type: in vivo, Zea mays
# How it was run: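 Greenhouse pot assay with simultaneous preemergence (treated seed) and postemergence (2–18 cm seedlings) applications of surfactant-containing, non-phytotoxic solvent formulations. Response scored visually 13–15 days later on a 0–100 scale, 100 meaning complete control.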
# Surinam grass = experiment: Test C pre-/postemergence herbicide test; assay type: in vivo, Urochloa decumbens; details: for Plant response rating, Surinam Grass / Plant response rating (0 = no effect, 100 = complete control), Surinam Grass: preemergence; for Plant response rating (0 = no effect, 100 = complete control), Surinam Grass: 62 g ai/ha
# How it was run: as §1
# yellow nutsedge = experiment: Test C pre-/postemergence herbicide test; assay type: in vivo, Cyperus esculentus; details: for Plant response rating, Nutsedge, Yellow / Plant response rating (0 = no effect, 100 = complete control), Nutsedge, Yellow: preemergence; for Plant response rating (0 = no effect, 100 = complete control), Nutsedge, Yellow: 62 g ai/ha
# How it was run: as §1
# corn [2] = experiment: Test C pre-/postemergence herbicide test; assay type: in vivo, Zea mays; details: for Plant response rating (0 = no effect, 100 = complete control), Corn: 62 g ai/ha; for Plant response rating (0 = no effect, 100 = complete control), Corn / Plant response rating, Corn: preemergence; for Plant response rating, Corn: visual, 12 to 14 days
# How it was run: as §1
# large crabgrass = experiment: Test C pre-/postemergence herbicide test; assay type: in vivo, Digitaria sanguinalis; details: for Plant response rating, Crabgrass, Large / Plant response rating (0 = no effect, 100 = complete control), Crabgrass, Large: preemergence; for Plant response rating (0 = no effect, 100 = complete control), Crabgrass, Large: 62 g ai/ha
# How it was run: as §1
# velvetleaf = experiment: Test C pre-/postemergence herbicide test; assay type: in vivo, Abutilon theophrasti; details: for Plant response rating, Velvetleaf / Plant response rating (0 = no effect, 100 = complete control), Velvetleaf: preemergence; for Plant response rating (0 = no effect, 100 = complete control), Velvetleaf: 62 g ai/ha
# How it was run: as §1
# wild oat = experiment: Test B postemergence herbicide test; assay type: in vivo, Avena fatua; details: scale 0 (no effect) to 100 (complete control); for Oat, Wild plant response rating: 125 g ai/ha; for Plant response rating, Oat, Wild: 500 g ai/ha, visual rating after 13 to 15 days
# How it was run: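 Visual ratings, 0 (no effect) to 100 (complete control), made versus controls after 13–15 d greenhouse. Paddy plants treated at 2-leaf stage; postemergence plants at 1- to 4-leaf stage, 2–18 cm tall.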
# soybean = experiment: Test C pre-/postemergence herbicide test; assay type: in vivo, Glycine max; details: for Plant response rating, Soybean / Plant response rating (0 = no effect, 100 = complete control), Soybean: preemergence; for Plant response rating (0 = no effect, 100 = complete control), Soybean: 62 g ai/ha
# How it was run: as §1
# pigweed = experiment: Test C pre-/postemergence herbicide test; assay type: in vivo, Amaranthus retroflexus; details: for Plant response rating, Pigweed / Plant response rating (0 = no effect, 100 = complete control), Pigweed: preemergence; for Plant response rating (0 = no effect, 100 = complete control), Pigweed: 62 g ai/ha
# How it was run: as §1
# [3] = 250 g ai/ha, scale 0 to 100 (0 no effect, 100 complete control), visual, 12 to 14 days
# [4] = Preemergence, 500 g ai/ha, scale 0 to 100
# [5] = 125 g ai/ha, scale 0 (no effect) to 100 (complete control), visual, 12 to 14 days
# [6] = 125 g ai/ha, scale 0 (no effect) to 100 (complete control)
# [7] = 250 g ai/ha, scale 0 to 100 (0 no effect, 100 complete control)
# [8] = Preemergence, 500 g ai/ha, scale 0 to 100, 0 no effect, 100 complete control
Structure (SMILES),"Plant response rating (0 = no effect, 100 = complete control), Johnsongrass (johnsongrass)","Plant response rating, Johnsongrass (johnsongrass; [3])",Corn plant response rating (corn [1]; [4]),"Plant response rating (0 = no effect, 100 = complete control), Surinam Grass (Surinam grass)","Plant response rating, Surinam Grass (Surinam grass; [5])","Plant response rating, Surinam Grass (Surinam grass; [3])","Plant response rating (0 = no effect, 100 = complete control), Nutsedge, Yellow (yellow nutsedge)","Plant response rating, Nutsedge, Yellow (yellow nutsedge; [5])","Plant response rating, Nutsedge, Yellow (yellow nutsedge; [3])","Plant response rating (0 = no effect, 100 = complete control), Corn (corn [2])","Plant response rating, Corn (corn [2]; [6])","Plant response rating, Corn (corn [2]; [7])","Plant response rating (0 = no effect, 100 = complete control), Crabgrass, Large (large crabgrass)","Plant response rating, Crabgrass, Large (large crabgrass; [5])","Plant response rating, Crabgrass, Large (large crabgrass; [3])","Plant response rating (0 = no effect, 100 = complete control), Velvetleaf (velvetleaf)","Plant response rating, Velvetleaf (velvetleaf; [5])","Plant response rating, Velvetleaf (velvetleaf; [3])","Plant response rating, Oat, Wild (wild oat; Postemergence)","Plant response rating (0 = no effect, 100 = complete control), Soybean (soybean)",also measured
CCCCn1nc(C(C)(C)C)cc1C(=O)Nc1cccc(C(=O)NCC)c1 [Compound 41],0,20,0,20,20,20,0,0,0,0,0,0,90,100,100,40,40,100,10,0,"Plant response rating, Johnsongrass (johnsongrass; 31 g ai/ha, scale 0 to 100): 0; Plant response rating, Surinam Grass (Surinam grass; 31 g ai/ha, scale 0 to 100): 10; Plant response rating, Nutsedge, Yellow (yellow nutsedge; 31 g ai/ha, scale 0 to 100): 0; Plant response rating, Crabgrass, Large (large crabgrass; 31 g ai/ha, scale 0 to 100): 0; Plant response rating, Velvetleaf (velvetleaf; 31 g ai/ha, scale 0 to 100): 0; Oat, Wild plant response rating (wild oat; Postemergence): 10; Plant response rating, Soybean (soybean; 31 g ai/ha, scale 0 to 100): 0; Plant response rating, Soybean (soybean; [5]): 0; Plant response rating, Soybean (soybean; [3]): 10; Plant response rating, Pigweed (pigweed; 31 g ai/ha, scale 0 to 100): 0; Plant response rating (0 = no effect, 100 = complete control), Pigweed (pigweed): 0; Plant response rating, Pigweed (pigweed; [5]): 90; Plant response rating, Pigweed (pigweed; [3]): 100"
CCCn1nc(C(C)(C)C)cc1C(=O)Nc1cccc(C(=O)NCC)c1 [Compound 57],20,80,0,0,15,35,0,0,0,0,0,0,95,100,100,0,0,100,30,0,"Plant response rating, Johnsongrass (johnsongrass; [5]): 65; Johnsongrass plant response rating (johnsongrass; [8]): 85; Plant response rating, Corn (corn [1]; Postemergence, 500 g ai/ha, visual rating after 13 to 15 days, scale 0 (no effect) to 100 (complete control)): 20; Corn plant response rating (corn [1]; postemergence, 125 g ai/ha, visual rating, scale 0 (no effect) to 100 (complete control)): 20; Plant response rating, Corn (corn [1]; preemergence, 125 g ai/ha, 0 to 100 scale, 0 is no effect, 100 is complete control): 0; Surinam Grass plant response rating (Surinam grass; [8]): 75; Nutsedge, Yellow plant response rating (yellow nutsedge; [8]): 20; Corn plant response rating (corn [2]; [8]): 0; Crabgrass, Large plant response rating (large crabgrass; [8]): 100; Velvetleaf plant response rating (velvetleaf; [8]): 100; Oat, Wild plant response rating (wild oat; postemergence, visual rating): 30; Plant response rating, Soybean (soybean; [5]): 0; Plant response rating, Soybean (soybean; [3]): 0; Soybean plant response rating (soybean; [8]): 60; Plant response rating (0 = no effect, 100 = complete control), Pigweed (pigweed): 100; Plant response rating, Pigweed (pigweed; [5]): 100; Plant response rating, Pigweed (pigweed; [3]): 100; Pigweed plant response rating (pigweed; [8]): 100"
